Data taken from ChEMBL document CHEMBL4602729, “O-Alkyl Hydroxamates Display Potent and Selective Antileishmanial Activity” (J Med Chem, 2020).
Calls of active or inactive are those of the source. No cut-off for these calls is given here.

Tests used:
BMDM = test: Cytotoxicity against Swiss mouse BMDM assessed as reduction in cell viability at 14.3 uM measured after 72 hrs using gold nanoparticle incorporated compound by tryphan blue assay; assay type: cell-based
[1] = Toxicity in BALB/c mouse infected with Leishmania infantum MON-1 promastigotes assessed as swelling of liver at 10 to 25 mg/kg, ip administered daily for 14 days starting from 28 days post infection using PLGA nanoparticle incorporated compound; assay type: organism-based; details: in vivo
[2] = Toxicity in BALB/c mouse infected with Leishmania infantum MON-1 promastigotes assessed as swelling of liver at 10 to 25 mg/kg, ip administered daily for 14 days starting from 28 days post infection using gold nanoparticle incorporated compound; assay type: organism-based; details: in vivo
[3] = Drug metabolism in human liver microsomes assessed as compound 13 formation at 1 uM measured after 30 mins by LC-MS/MS analysis; assay type: ADME, Microsome; details: 0.5 h
Leishmania infantum [4] = test: Antileishmanial activity against Leishmania infantum MON-1 promastigotes assessed as reduction in parasite viability at 100 uM measured after 48 hrs by MTT assay; assay type: functional, organism-based
[5] = Half life in human liver microsomes at 1 uM in presence of NADPH by LC-MS/MS analysis; assay type: ADME, Microsome
[6] = Drug metabolism in human liver microsomes assessed as N-oxidation of amide moiety by measuring compound 14 formation at 1 uM measured up to 60 mins by LC-MS/MS analysis; assay type: ADME, Microsome; details: 1 h
Leishmania major = test: Antileishmanial activity against Leishmania major MON-4 intracellular amastigotes; assay type: functional, organism-based; details: Leishmania major, MON-4
[7] = Drug metabolism in human liver microsomes assessed as compound 12 formation at 1 uM measured after 30 mins by LC-MS/MS analysis; assay type: ADME, Microsome; details: 0.5 h
Leishmania infantum [8] = test: (§1) Antileishmanial activity against Leishmania infantum MON-1 promastigotes infected in BALB/c mouse assessed as reduction in spleen parasite load at 25 mg/kg, ip administered daily for 14 days starting from 28 days post infection using PLGA nanoparticle incorporated compound measured post last dose by Taqman qRT-PCR analysis relative to control; assay type: functional; set-up: scale not given: the % may be the effect or the level left
Leishmania infantum [9] = test: as §1, with “liver” for “spleen”, “5” for “25”, “gold” for “PLGA”, “dose in presence of meglumine antimoniate” for “dose”; assay type: functional; set-up: scale not given: the % may be the effect or the level left
Leishmania infantum [10] = test: (§2) Antileishmanial activity against Leishmania infantum MON-1 intracellular amastigotes infected in Swiss mouse BMDM assessed as reduction in parasite load at 3.21 uM measured after 48 hrs using PLGA nanoparticle incorporated compound by Giemsa staining based optical microscopic analysis relative to control; assay type: functional; set-up: scale not given: the % may be the effect or the level left
Leishmania infantum [11] = test: as §1, with “liver” for “spleen”, “gold” for “PLGA”; assay type: functional; set-up: scale not given: the % may be the effect or the level left
[12] = Mutagenicity in Salmonella typhimurium TA98 at 10 to 75 uM measured after 5 days in presence of S9 fraction by Ames test; assay type: toxicity, subcellular; details: salmonella enterica subsp. enterica serovar typhimurium, s9, 120 h
[13] = Cytotoxicity against mouse L929 cells assessed as reduction in cell viability measured after 72 hrs by tryphan blue assay; assay type: cell-based; details: L929 cells
[14] = Sub-acute toxicity in Swiss mouse at 25 to 200 mg/kg administered as for 14 days and measured on day 28; assay type: organism-based; details: in vivo, 336 h
Leishmania tropica = test: Antileishmanial activity against Leishmania tropica MON-102 intracellular amastigotes; assay type: functional, organism-based; details: Leishmania tropica, MON-102
Leishmania infantum [15] = test: as §1, with “gold” for “PLGA”; assay type: functional; set-up: scale not given: the % may be the effect or the level left
[16] = Toxicity in BALB/c mouse infected with Leishmania infantum MON-1 promastigotes assessed as histological changes at 10 to 25 mg/kg, ip administered daily for 14 days starting from 28 days post infection using PLGA nanoparticle incorporated compound; assay type: organism-based; details: in vivo
Cytochrome P450 2D6 = Cytochrome P450 2D6 (Homo sapiens, UniProt P10635); test: Inhibition of CYP2D6 in human liver microsomes using dextromethorphan as substrate measured after 30 mins by LC-MS/MS analysis; assay type: ADME
Cytochrome P450 2D6, sequence (P10635 whole entry): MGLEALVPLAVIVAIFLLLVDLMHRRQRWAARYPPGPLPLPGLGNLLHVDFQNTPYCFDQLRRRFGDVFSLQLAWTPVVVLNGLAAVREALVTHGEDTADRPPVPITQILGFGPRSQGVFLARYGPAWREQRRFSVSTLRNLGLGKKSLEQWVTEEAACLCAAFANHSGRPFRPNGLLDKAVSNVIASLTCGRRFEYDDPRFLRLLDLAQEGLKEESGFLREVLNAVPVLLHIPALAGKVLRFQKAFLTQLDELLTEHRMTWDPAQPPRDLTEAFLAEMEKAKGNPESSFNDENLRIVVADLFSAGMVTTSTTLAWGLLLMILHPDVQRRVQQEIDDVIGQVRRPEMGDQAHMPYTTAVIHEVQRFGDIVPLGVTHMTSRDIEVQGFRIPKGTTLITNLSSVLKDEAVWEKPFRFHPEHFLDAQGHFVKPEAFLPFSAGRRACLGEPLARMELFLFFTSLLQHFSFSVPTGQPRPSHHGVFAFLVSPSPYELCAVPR

[17] = Toxicity in BALB/c mouse infected with Leishmania infantum MON-1 promastigotes assessed as biochemical alteration in plasma at 10 to 25 mg/kg, ip administered daily for 14 days starting from 28 days post infection using PLGA nanoparticle incorporated compound; assay type: organism-based; details: in vivo
[18] = Toxicity in BALB/c mouse infected with Leishmania infantum MON-1 promastigotes assessed as biochemical alteration in serum at 10 to 25 mg/kg, ip administered daily for 14 days starting from 28 days post infection using gold nanoparticle incorporated compound; assay type: organism-based; details: in vivo
Leishmania infantum [19] = test: as §2, with “14.3” for “3.21”, “gold” for “PLGA”; assay type: functional; set-up: scale not given: the % may be the effect or the level left
[20] = Cytotoxicity against Swiss mouse BMDM assessed as reduction in cell viability measured after 72 hrs by tryphan blue assay; assay type: cell-based; details: Swiss, BMDM
Leishmania infantum [21] = test: as §1, with “liver” for “spleen”, “10” for “25”, “analysis” for “analysis relative to control”; assay type: functional, organism-based
[22] = Toxicity in BALB/c mouse infected with Leishmania infantum MON-1 promastigotes assessed as biochemical alteration in serum at 10 to 25 mg/kg, ip administered daily for 14 days starting from 28 days post infection using PLGA nanoparticle incorporated compound; assay type: organism-based; details: in vivo
[23] = Toxicity in BALB/c mouse infected with Leishmania infantum MON-1 promastigotes assessed as weight loss at 10 to 25 mg/kg, ip administered daily for 14 days starting from 28 days post infection using PLGA nanoparticle incorporated compound; assay type: organism-based; details: in vivo
[24] = Toxicity in BALB/c mouse infected with Leishmania infantum MON-1 promastigotes assessed as enzymatic alteration in serum at 10 to 25 mg/kg, ip administered daily for 14 days starting from 28 days post infection using PLGA nanoparticle incorporated compound; assay type: organism-based; details: in vivo
[25] = Mutagenicity in Salmonella typhimurium TA98 at 10 to 75 uM measured after 5 days in absence of S9 fraction by Ames test; assay type: toxicity; details: salmonella enterica subsp. enterica serovar typhimurium, s9, 120 h
Leishmania infantum [26] = test: as §1, with “liver” for “spleen”; assay type: functional; set-up: scale not given: the % may be the effect or the level left
Leishmania infantum [27] = test: as §1, with “10” for “25”, “gold” for “PLGA”; assay type: functional; set-up: scale not given: the % may be the effect or the level left
Cytochrome P450 3A4 = Cytochrome P450 3A4 (Homo sapiens, UniProt P08684); test: Inhibition of CYP3A4 in human liver microsomes using testosterone as substrate measured after 15 mins by LC-MS/MS analysis; assay type: ADME
Cytochrome P450 3A4, sequence (P08684 whole entry): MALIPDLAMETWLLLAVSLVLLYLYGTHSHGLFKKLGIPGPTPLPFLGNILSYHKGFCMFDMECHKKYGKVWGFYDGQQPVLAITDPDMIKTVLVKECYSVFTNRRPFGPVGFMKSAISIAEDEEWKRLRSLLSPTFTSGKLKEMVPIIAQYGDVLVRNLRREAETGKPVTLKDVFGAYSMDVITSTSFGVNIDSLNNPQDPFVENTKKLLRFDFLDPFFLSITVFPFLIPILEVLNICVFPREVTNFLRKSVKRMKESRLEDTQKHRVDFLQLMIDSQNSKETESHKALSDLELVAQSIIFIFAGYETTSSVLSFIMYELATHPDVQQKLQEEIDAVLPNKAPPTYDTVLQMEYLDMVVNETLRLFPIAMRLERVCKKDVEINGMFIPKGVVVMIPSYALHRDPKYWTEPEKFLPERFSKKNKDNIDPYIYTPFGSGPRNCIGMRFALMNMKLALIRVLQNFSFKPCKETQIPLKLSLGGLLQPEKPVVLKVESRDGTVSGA

Leishmania donovani = test: Antileishmanial activity against Leishmania donovani MON-2 intracellular amastigotes; assay type: functional, organism-based; details: Leishmania donovani, MON-2
[28] = Drug metabolism in human liver microsomes assessed as vorinostat formation at 1 uM measured up to 60 mins by LC-MS/MS analysis; assay type: ADME, Microsome; details: 1 h
[29] = Toxicity in BALB/c mouse infected with Leishmania infantum MON-1 promastigotes at 5 to 10 mg/kg, ip administered daily for 14 days starting from 28 days post infection using gold nanoparticle incorporated compound in presence of meglumine antimoniate; assay type: organism-based; details: in vivo
Leishmania infantum [30] = test: as §1, with “10” for “25”, “analysis” for “analysis relative to control”; assay type: functional, organism-based

Q: Which Activity (BMDM) does the source give for `O=C(CCCCCCC(=O)Nc1ccccc1)NOC(c1ccccc1)(c1ccccc1)c1ccccc1` here?
A: Non-Toxic

Q: And the Activity [1]?
A: Non-Toxic

Q: And the Activity [2]?
A: Non-Toxic

Q: What about the Drug metabolism [3] of the same compound?
A: Metabolite_Detected

Q: What about the Activity (Leishmania infantum [4]) of the same compound?
A: inactive

Q: And the half-life at 1 µM [5]?
A: 8.7 min

Q: And the Drug metabolism [6]?
A: Metabolite_Detected

Q: And the IC50 (Leishmania major)?
A: 1000 nM

Q: And the Drug metabolism [7]?
A: Metabolite_Detected

Q: What about the Activity (Leishmania infantum [8]) of the same compound?
A: 70%

Q: What about the Activity (Leishmania infantum [9]) of the same compound?
A: 98%

Q: What about the Activity (Leishmania infantum [10]) of the same compound?
A: 54%

Q: What about the Activity (Leishmania infantum [11]) of the same compound?
A: 68%

Q: And the Activity [12]?
A: Non-Toxic

Q: And the CC50 at 72 h [13]?
A: > 100000 nM

Q: What about the Activity [14] of the same compound?
A: Non-Toxic

Q: And the IC50 (Leishmania tropica)?
A: 710 nM

Q: What about the Activity (Leishmania infantum [15]) of the same compound?
A: 96%

Q: And the Activity [16]?
A: Non-Toxic

Q: And the IC50 (Cytochrome P450 2D6)?
A: > 86200 nM

Q: What about the Activity [17] of the same compound?
A: Non-Toxic

Q: And the Activity [18]?
A: Non-Toxic

Q: What about the Activity (Leishmania infantum [19]) of the same compound?
A: 71%

Q: What about the CC50 at 72 h [20] of the same compound?
A: > 100000 nM

Q: And the Activity (Leishmania infantum [21])?
A: inactive

Q: And the Activity [22]?
A: Non-Toxic

Q: What about the Activity [23] of the same compound?
A: Non-Toxic

Q: And the Activity [24]?
A: Non-Toxic

Q: What about the Activity [25] of the same compound?
A: Non-Toxic

Q: And the Activity (Leishmania infantum [26])?
A: 60%

Q: And the Activity (Leishmania infantum [27])?
A: 86%

Q: And the IC50 (Cytochrome P450 3A4)?
A: 5560 nM

Q: What about the IC50 (Leishmania donovani) of the same compound?
A: 2910 nM

Q: What about the Drug metabolism [28] of the same compound?
A: Metabolite_Notdetected

Q: And the Activity [29]?
A: Non-Toxic

Q: What about the Activity (Leishmania infantum [30]) of the same compound?
A: inactive
